Results from patent publication US5482975A, “Adenosine diphosphoribose polymerase binding nitroso aromatic compounds useful as retroviral inactivating agents, anti-retroviral agents and anti-tumor agents” (priority 1993, dated 1996).

Tests used:
[1] = test system: ADPRT; details: cited from earlier work
[2] = test system: anti-tumor and anti-HIV; test: biological action of nitroso compounds (anti-tumor and anti-HIV, summary); type: cell-based; details: for anti-tumor and anti-HIV activity: effective even after exposure of cells as short as 30 minutes
[3] = test system: human leukemia cell lines (855-2, H9, HL-60, K562); test: [3H] thymidine uptake, human leukemia cell lines together; type: cell-based; details: 10 μM; each of the cell lines tested
[4] = test system: 855-2 cells; test: cytocidal activity, MTT assay; type: cell-based, human; details: 10 μM; 100,000 cells/ml
Description: MTT (3-[4,5-[…]]-2,5-diphenyltetrazolium bromide) at 1 mg/ml was then added for 16 hours. The absorbance of the pelleted cell was then measured at 550 nm after adding DMSO to solubilze the cells.

[5] = test system: HIV-1; test: inhibition of HIV infection, virus titer in stimulated human lymphoblasts; type: cell-based; details: 30 min exposure, day 10, virus alone 5.25
Description: VIII. Anti-HIV action of NOBP, NOBA and NOQ on stimulated human lymphoblasts.
Exposure to the two drugs was only for 30 minutes at the commencement of viral infection, and drugs were never re-added. The results given in Table III provide the ID50 of HIV titer 10 days after infection of cell cultures with HIV.

[6] = test system: H9 cells; test: [3H] thymidine uptake, H9 cells (FIG. 2B); type: cell-based, human; details: 10% FCS
[7] = test system: K562 cells; test: [3H] thymidine uptake, K562 cells (FIG. 2D); type: cell-based, human; details: 10% fetal bovine serum
[8] = test system: 855-2 cells; test: [3H] thymidine uptake / growth, 855-2 cells (FIG. 2A, E, F; FIG. 3); type: cell-based, human; details: for relative inhibition: 1 μM; for relative inhibition / inhibition / inhibitory effects with different growth factors: 10% fetal bovine serum; for inhibitory effects with different growth factors: AGF or BCGF
Description: FIGS. 2A-2F are a composite of graphs displaying the inhibitory effects of the ADRPT ligands on (FIG. 2A) 855-2 cells (a cell line of human B-cell lineage acute lymphoblastic leukemia), (FIG. 2B) H9 cells (a cell line of human T-cell lineage acute lymphoblastic leukemia), FIG. (2C) HL-60 cells (a cell line of human acute nonlymphoblastic leukemia) and (FIG. 2D) K562 cells (a cell line of human chronic myelogenous leukemia). These cells were cultured while under the influence of the growth factors in 10% fetal bovine serum (FCS), whereas in (FIG. 2E) and (FIG. 2F) the 855-2 cells were cultured in the presence of autocrine growth factor activity (AGF) or low molecular weight-B-cell growth factor (BCGF, a T-cell derived lymphokine), respectively.
Experiments using HL-60 cells (FIG. 2C) provided similar conclusions.
855-2 cells that were grown in media with (1) 10% fetal bovine serum, (2) autocrine growth factor (AGF) and (3) low molecular weight-BCGF (a T cell derived lymphokine) were exposed to increasing concentrations of the ADRPT ligands.

[9] = molecular target: T1, calf thymus ADPRT (Bos taurus, UniProt P18493); test: ADPRT polymerase activity inhibition / inactivation; type: biochemical
T1 construct: from tissue; host or cells: calf thymus
T1 sequence (P18493 whole entry): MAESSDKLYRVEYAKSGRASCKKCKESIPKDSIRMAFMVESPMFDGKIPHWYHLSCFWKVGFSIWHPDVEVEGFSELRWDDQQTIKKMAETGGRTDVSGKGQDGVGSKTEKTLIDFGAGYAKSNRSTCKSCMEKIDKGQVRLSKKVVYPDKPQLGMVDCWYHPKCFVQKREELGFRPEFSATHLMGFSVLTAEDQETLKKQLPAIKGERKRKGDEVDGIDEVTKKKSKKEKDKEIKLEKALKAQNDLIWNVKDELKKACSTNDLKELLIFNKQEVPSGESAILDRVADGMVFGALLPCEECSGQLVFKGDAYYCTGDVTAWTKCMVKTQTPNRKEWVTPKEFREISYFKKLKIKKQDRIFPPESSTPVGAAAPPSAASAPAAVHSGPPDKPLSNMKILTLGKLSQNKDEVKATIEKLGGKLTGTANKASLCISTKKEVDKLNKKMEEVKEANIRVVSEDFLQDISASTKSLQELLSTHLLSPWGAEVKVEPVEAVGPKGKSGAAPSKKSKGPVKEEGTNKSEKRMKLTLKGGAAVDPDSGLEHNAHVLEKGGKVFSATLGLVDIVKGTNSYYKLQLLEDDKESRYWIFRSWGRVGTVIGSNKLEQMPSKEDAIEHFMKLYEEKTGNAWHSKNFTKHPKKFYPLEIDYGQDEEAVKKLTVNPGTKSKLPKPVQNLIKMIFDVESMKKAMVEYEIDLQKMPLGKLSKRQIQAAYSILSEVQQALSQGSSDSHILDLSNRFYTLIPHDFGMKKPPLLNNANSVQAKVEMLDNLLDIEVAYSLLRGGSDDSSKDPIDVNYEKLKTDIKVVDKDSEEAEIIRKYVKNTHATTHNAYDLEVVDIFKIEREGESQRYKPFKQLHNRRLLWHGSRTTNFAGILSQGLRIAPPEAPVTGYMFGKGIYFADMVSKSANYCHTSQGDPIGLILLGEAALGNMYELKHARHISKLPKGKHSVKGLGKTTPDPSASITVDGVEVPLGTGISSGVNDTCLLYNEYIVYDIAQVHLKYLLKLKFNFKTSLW
Description: | Polymerization at 25° C. for 4 minutes.

[10] = test system: normal rhesus bone marrow stem cells; test: CFU stem cell toxicity assay (FIG. 5A)
[11] = molecular target: Zn(HIV1-F1) (Human immunodeficiency virus type 1 lw12.3 isolate, UniProt Q70622); details: cited from earlier work
[12] = test system: various cancer cells (855-2, HL-60, D32, D37, CRL 7712, 186 medulla, L1210, MDA-468); test: functions of various cancer cells in presence of compounds (FIGS. 4-9); type: cell-based; details: summary statement
Description: (§1) Experiments were performed in which the functions of various cancer cells (855-2 and HL-60 leukemia cells, D32, D37 and CRL 7712 glioblastoma cell lines, 186 medulla tumor cell line, L1210 murine leukemia cell line, MDA-468 human breast tumor cell line) and normal cells (neutrophil leukocytes and bone marrow or peripheral blood stream cells) were assessed in the absence or presence of the compounds.

[13] = test system: Human Neutrophils; test: superoxide generation by human neutrophils; details: 10 μM; mean + S.D., n = 11; PMN + PMA
[14] = test system: HL-60 cells; test: colony formation (CFU) of leukemic cells in semi-solid medium (FIG. 4); type: cell-based, human
Description: as §1

[15] = test system: 855-2 leukemia cells; test: growth inhibition of 855-2 cells, comparison with vincristine (FIG. 7); type: cell-based, human
Description: Vincristine, a highly toxic chemotherapeutic compound, is currently used in the treatment of leukemia and other malignancies. […] Vincristine was tested in doses of 0.1, 1, 10 and 100 μM.

[16] = test system: normal cells (neutrophil leukocytes and bone marrow or peripheral blood cells)
Description: as §1

[17] = test system: 855-2 cells; test: colony formation (CFU) of leukemic cells in semi-solid medium (FIG. 4); type: cell-based, human
Description: as §1

[18] = not told

3-aminonaphthylhydrazide
ADPRT polymerase activity inhibition [1]: known to inhibit ADPRT polymerase activity

5(7)-nitroso-1(2H)-isoquinolinone [NOQ]
anti-tumor and anti-HIV activity [2]: highly active
inhibition of 3H-thymidine uptake [3]: powerfully inhibited
cell killing [4]: complete killing
Virus Titer (log ID50) ([5]; 10 μM): 1.73 log ID50
inhibition of thymidine uptake ([6]; 10 μM): almost complete inhibition
relative potency [6]: most potent inhibitor
inhibition of cell growth ([7]; 10 μM): almost complete inhibition
relative potency [7]: most potent inhibitors
relative inhibition [8]: somewhat more inhibition than NOBP
inhibition ([8]; 10 μM): almost complete inhibition
inhibitory effects with different growth factors [8]: potent inhibitory effects
IC50 ([9]; 25° C., 4 minutes, pH 7.5, read-out: I50 (concentration that inhibits ADPRT enzyme activity 50%)): 13 µM

Nc1ccc2oc(=O)ccc2c1 [ABP, 6-amino-1,2-benzopyrone]
CFU stem cell toxicity ([10]; 1 μM): toxic
Virus Titer (log ID50) ([5]; 500 μM): 4.50 log ID50
ADPRT binding [1]: binds specifically to ADRPT at the site that also binds to DNA

O=C(O)CN(CCN(CC(=O)O)CC(=O)O)CC(=O)O [EDTA]
molar excess required to remove zinc from Zn(HIV1-F1) [11]: 10 fold

Nc1ccc2oc(=O)ccc2c1I [IABP, 5-iodo-6-amino-1,2-benzopyrone]
CFU stem cell toxicity ([10]; 250 μM): toxic
Virus Titer (log ID50) ([5]; 250 μM): 4.66 log ID50
ADPRT polymerase activity inhibition [1]: known ADPRT polymerase activity inhibitors

O=c1ccc2cc([N+](=O)[O-])ccc2o1 [NO2 BP, 6-nitro-1,2-benzopyrone, reference compound]
Virus Titer (log ID50) ([5]; 250 μM): 4.93 log ID50
effectiveness against tumor cells [12]: almost ineffective

O=Nc1ccc2oc(=O)ccc2c1 [NOBP, 6-nitroso-1,2-benzopyrone]
anti-tumor and anti-HIV activity [2]: highly active
inhibition of 3H-thymidine uptake [3]: powerfully inhibited
Generation of Superoxide by Human Neutrophils [13]: 34.1 ± 14.1 nmol 02^- /hr/10^5 cells
cell killing [4]: complete killing
ability to form colonies (CFU) [14]: inhibit the ability
times more potent than vincristine ([15]; equal concentration): about 10 times
Virus Titer (log ID50) ([5]; 10 μM): 2.01 log ID50
effect on colony formation by normal cells [16]: minimal effect on normal cells
effect on viability of normal cells [16]: not to affect adversely the viability of normal cells
toxicity to normal cells [16]: not toxic to normal cells
inhibition of thymidine uptake ([6]; 100 μM): almost complete inhibition
ability to form colonies (CFU) [17]: inhibit the ability
effectiveness against tumor cells [12]: highly effective
inhibition of cell growth ([7]; 10 μM): almost complete inhibition
inhibition of cell growth ([7]; 100 μM): almost complete inhibition
relative potency [7]: most potent inhibitors
relative inhibition [8]: somewhat more inhibition than NOBA
growth arrest in increasing FCS ([8]; 10 μM, increasing FCS concentrations): Growth arrest occurs irrespective of the concentration of FCS
inhibition ([8]; 10 μM): almost complete inhibition
inhibitory effects with different growth factors [8]: potent inhibitory effects

NC(=O)c1ccccc1 [benzamide]
ADPRT polymerase activity inhibition [1]: known to inhibit ADPRT polymerase activity

O=Nc1ccc2oc(=O)ccc2c1I [compound 6, 5-iodo-6-nitroso-1,2-benzopyrone, reference compound]
biological action, times weaker than 6-N-1,2-benzopyrone ([2]; relative to 6-nitroso-1,2-benzopyrone): 10 times
permeation [18]: poor permeant molecule
inhibition of ADPRT [9]: relatively poor inhibitor

O=c1ccc2ccccc2o1 [coumarin, 1,2-benzopyrone]
ADPRT binding [1]: inhibitory ligand
ADPRT polymerase activity inhibition [1]: known to inhibit ADPRT polymerase activity

c1ccc2cnccc2c1 [isoquinoline]
ADPRT polymerase activity inhibition [1]: known to inhibit ADPRT polymerase activity

O=c1c(O)c(-c2ccc(O)c(O)c2)oc2cc(O)cc(O)c12 [quercetin]
ADPRT polymerase activity inhibition [1]: known to inhibit ADPRT polymerase activity

CC[C@]1(O)C[C@H]2CN(CCc3c([nH]c4ccccc34)[C@@](C(=O)OC)(c3cc4c(cc3OC)N(C=O)[C@H]3[C@@](O)(C(=O)OC)[C@H](OC(C)=O)[C@]5(CC)C=CCN6CC[C@]43[C@@H]65)C2)C1 [vincristine, reference compound]
concentration required for same growth inhibition as 10 μM NOBP ([15]; in vitro): 100 µM
